Data reported in patent US20070213301A1 (ACHILLION PHARMACEUTICALS, INC., priority 2006, published 2007).
Read-outs that look alike come from different tables or passages of the source.

Tested on: HCV replicon
Assay: HCV replicon replication assay (NPTII ELISA)
Type: cell-based, Hepatitis C virus (Huh-7 cells)
Conditions: Hepatitis C virus, Huh-7, 72 h, inhibition of HCV replicon replication in Huh-7 HCV replicon-containing cells, three days incubation, NPT level by ELISA
Outline: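 Huh-7 cells carrying a Bartenschlager NPTII (neo) HCV replicon, treated 3 days at 37 °C with compound, generally 6 concentrations from 10 to 0.03 micromolar, in equal DMSO across wells. NPTII level, proportional to replication, read by capture ELISA on methanol:acetone-fixed cells; interferon alpha positive control; toxicity scored visually or by MTS.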

## CCCCCCCCOc1ccc(N(C(=O)CNC(=O)OC(C)(C)C)c2nc(-c3cccnc3)c(F)s2)cc1C(F)(F)F [Compound 164, tert-butyl 2-((5-fluoro-4-(pyridin-3-yl)thiazol-2-yl)(4-(octyloxy)-3-(trifluoromethyl)phenyl)amino)-2-oxoethylcarbamate]
read-out: EC50
  EC50: < 1000 nM

## CCCCCN(C)c1ccc(N(C(=O)COC(C)=O)c2nc(-c3cccnc3)cs2)cc1C(F)(F)F [Compound 51, 2-((4-(methyl(pentyl)amino)-3-(trifluoromethyl)phenyl)(4-(pyridin-3-yl)thiazol-2-yl)amino)-2-oxoethyl acetate]
read-out: EC50
  EC50: < 1000 nM

## CCCCCCCCOc1ccc(N(C(N)=O)c2nc(-c3ccc(C(=O)N(C)C)nc3)cs2)cc1 [Compound 78, N,N-dimethyl-5-(2-(1-(4-(octyloxy)phenyl)ureido)thiazol-4-yl)picolinamide]
read-out: EC50
  EC50: > 10000 nM

## NC(=O)N(c1ccc(OCC2CCCCC2)c(F)c1)c1nc(-c2cccnc2)cs1 [Compound 119, 1-(4-(cyclohexylmethoxy)-3-fluorophenyl)-1-(4-(pyridin-3-yl)thiazol-2-yl)urea]
read-out: EC50
  EC50: < 1000 nM

## CCCCCCCCOc1ccc(N(C(=O)C(=O)OC)c2nc(-c3ccc(F)c(F)c3)cs2)cc1 [Compound 58, methyl 2-((4-(3,4-difluorophenyl)thiazol-2-yl)(4-(octyloxy)phenyl)amino)-2-oxoacetate]
read-out: EC50
  EC50: < 1000 nM

## CC/C=N/N(c1ccc(OCCCCCCCC)cc1)c1nc(-c2cccnc2)cs1 [Compound 188, (E)-2-(1-(4-(octyloxy)phenyl)-2-propylidenehydrazinyl)-4-(pyridin-3-yl)thiazolo]
read-out: EC50
  EC50: < 1000 nM

## CCCCCN(C)c1ccc(N(C(N)=O)c2nc(-c3ccc(F)c(F)c3)cs2)cc1C(F)(F)F [Compound 107]
  EC50: < 1000 nM

## CCCCCOc1ccc(N(C(=O)OC)c2nc(-c3ccc(F)cc3)cs2)cc1F [Compound 46, methyl 3-fluoro-4-(pentyloxy)phenyl(4-(4-fluorophenyl)thiazol-2-yl)carbamate]
read-out: EC50
  EC50: 1000 to 10000 nM

## CCCCCCOc1ccc(N(C(N)=O)c2nc(-c3ccc(O)c(C(N)=O)c3)cs2)cc1 [Compound 144, 5-(2-(1-(4-(hexyloxy)phenyl)ureido)thiazol-4-yl)-2-hydroxybenzamide]
read-out: EC50
  EC50: 1000 to 10000 nM

## CCCCCCOc1ccc(N(C(N)=O)c2nc(-c3ccccn3)cs2)cc1 [Compound 123, 1-(4-(hexyloxy)phenyl)-1-(4-(pyridin-2-yl)thiazol-2-yl)urea]
read-out: EC50
  EC50: < 1000 nM

## CCCCCCCOc1ccc(N(C(N)=O)c2nc(-c3ccc(F)cc3)cs2)cc1 [Compound 71, 1-(4-(4-fluorophenyl)thiazol-2-yl)-1-(4-(heptyloxy)phenyl)urea]
read-out: EC50
  EC50: < 1000 nM

## CCCCCOc1ccc(N(C(=O)C(=O)OC)c2nc(-c3ccc4[nH]c(=O)oc4c3)cs2)cc1C(F)(F)F [Compound 100, methyl 2-oxo-2-((4-(2-oxo-2,3-dihydrobenzo[d]oxazol-6-yl)thiazol-2-yl)(4-(pentyloxy)-3-(trifluoromethyl)phenyl)amino)acetate]
read-out: EC50
  EC50: < 1000 nM

## CCCCCOc1ccc(N(C(=O)C2CC2)c2nc(-c3ccc(C(=O)N(C)C)cn3)cs2)cc1C(F)(F)F [Compound 13, N,N-dimethyl-6-(2-(N-(4-(pentyloxy)-3-(trifluoromethyl)phenyl)cyclopropane-carboxamido)thiazol-4-yl)nicotinamide]
read-out: EC50
  EC50: > 10000 nM

## CCCCCCCCc1ccc(N(C(=O)OCOC(=O)C(N)C(C)C)c2nc(-c3cccnc3)c(F)s2)cc1C(F)(F)F (stereo not shown) [Compound 186, ((5-fluoro-4-(pyridin-3-yl)thiazol-2-yl)(4-octyl-3-(trifluoromethyl)phenyl)carbamoyloxy) methyl 2-amino-3-methylbutanoate]
read-out: EC50
  EC50: < 1000 nM

## CCCCCOc1ccc(N(C(=O)C(C)C)c2nc(-c3cccnc3)cs2)cc1C(F)(F)F [Compound 14, N-(4-(pentyloxy)-3-(trifluoromethyl)phenyl)-N-(4-(pyridin-3-yl)thiazol-2-yl)isobutyramide]
read-out: EC50
  EC50: < 1000 nM

## CCCCCOc1ccc(N(C(=O)Nc2ccccc2)c2nc(-c3cccnc3)cs2)cc1C(F)(F)F [Compound 81, 1-(4-(pentyloxy)-3-(trifluoromethyl)phenyl)-3-phenyl-1-(4-(pyridin-3-yl)thiazol-2-yl)urea]
read-out: EC50
  EC50: < 1000 nM

## CCCCCOc1ccc(N(C(=O)COC(C)=O)c2nc(-c3ccc(F)c(F)c3)cs2)cc1C(F)(F)F [Compound 54, 2-((4-(3,4-difluorophenyl)thiazol-2-yl)(4-(pentyloxy)-3-(trifluoromethyl)phenyl)amino)-2-oxoethyl acetate]
read-out: EC50
  EC50: < 1000 nM

## CCCCCOc1ccc(N(C(N)=O)c2nc(-c3ccc(C(=O)N(C)C)nc3)cs2)cc1C(F)(F)F [Compound 77, N,N-dimethyl-5-(2-(1-(4-(pentyloxy)-3-(trifluoromethyl)phenyl)ureido)thiazol-4-yl)picolinamide]
read-out: EC50
  EC50: < 1000 nM

## CCCCCCCOc1ccc(N(C(=O)C(=O)OC)c2nc(-c3cccnc3)cs2)cc1 [Compound 40, methyl 2-((4-(heptyloxy)phenyl)(4-(pyridin-3-yl)thiazol-2-yl)amino)-2-oxoacetate]
read-out: EC50
  EC50: < 1000 nM

## CCCCCCCCc1ccc(N(C(=O)C(N)C(C)C)c2nc(-c3cccnc3)c(F)s2)cc1C(F)(F)F (stereo not shown) [Compound 180, 2-amino-N-(5-fluoro-4-(pyridin-3-yl)thiazol-2-yl)-3-methyl-N-(4-octyl-3-(trifluoromethyl)phenyl)butanamide]
read-out: EC50
  EC50: < 1000 nM

## CCCCCCCCOc1ccc(N(C(C)=O)c2nc(-c3cccnc3)cs2)cc1 [Compound 68, N-(4-(octyloxy)phenyl)-N-(4-(pyridin-3-yl)thiazol-2-yl)acetamide]
read-out: EC50
  EC50: < 1000 nM

## CCCCCCCCOc1ccc(N(C(C)=O)c2ncc(-c3cccnc3)s2)cc1C(F)(F)F [Compound 194, N-(4-(octyloxy)-3-(trifluoromethyl)phenyl)-N-(5-(pyridin-3-yl)thiazol-2-yl)acetamide]
read-out: EC50
  EC50: < 1000 nM

## CC(C)COc1ccc(N(C(N)=O)c2nc(-c3ccc(F)cc3)cs2)cc1C(F)(F)F [Compound 125, 1-(4-(4-fluorophenyl)thiazol-2-yl)-1-(4-isobutoxy-3-(trifluoromethyl)phenyl)urea]
read-out: EC50
  EC50: < 1000 nM

## CCCCCOc1ccc(N(C(C)=O)c2nc(CN(C)C)cs2)cc1C(F)(F)F [Compound 20, N-(4-((dimethylamino)methyl)thiazol-2-yl)-N-(4-(pentyloxy)-3-(trifluoromethyl)phenyl)acetamide]
read-out: EC50
  EC50: 1000 to 10000 nM

## CC(C)COc1ccc(N(C(N)=O)c2nc(-c3ccccn3)cs2)cc1C(F)(F)F [Compound 150, 1-(4-isobutoxy-3-(trifluoromethyl)phenyl)-1-(4-(pyridin-2-yl)thiazol-2-yl)urea]
read-out: EC50
  EC50: < 1000 nM

## CCCCCOc1ccc(N(C(N)=O)c2nc(-c3ccc(F)cc3)cs2)cc1C(F)(F)F [Compound 69, 1-(4-(4-fluorophenyl)thiazol-2-yl)-1-(4-(pentyloxy)-3-(trifluoromethyl)phenyl)urea]
read-out: EC50
  EC50: < 1000 nM

## CCCCCOc1ccc(N(C(N)=O)c2nc(-c3ccc4c(c3)NC(=O)CO4)cs2)cc1F [Compound 110, 1-(3-fluoro-4-(pentyloxy)phenyl)-1-(4-(3-oxo-3,4-dihydro-2H-benzo[b][1,4]oxazin-6-yl)thiazol-2-yl)urea]
read-out: EC50
  EC50: > 10000 nM

## CCCCCOc1ccc(N(C=O)c2nc(-c3cccnc3)cs2)cc1C(F)(F)F [Compound 50, N-(4-(pentyloxy)-3-(trifluoromethyl)phenyl)-N-(4-(pyridin-3-yl)thiazol-2-yl)formamide]
read-out: EC50
  EC50: < 1000 nM

## CCCCCOc1ccc(N(C(=O)OC)c2nc(-c3cccnc3)cs2)cc1C(F)(F)F [Compound 31, methyl 4-(pentyloxy)-3-(trifluoromethyl)phenyl(4-(pyridin-3-yl)thiazol-2-yl)carbamate]
read-out: EC50
  EC50: < 1000 nM

## CCCCCOc1ccc(N(C(=O)C2CCCCC2)c2nc(-c3cccnc3)cs2)cc1C(F)(F)F [Compound 32, N-(4-(pentyloxy)-3-(trifluoromethyl)phenyl)-N-(4-(pyridin-3-yl)thiazol-2-yl)cyclohexanecarboxamide]
read-out: EC50
  EC50: < 1000 nM

## CCCCCN(C)c1ccc(N(C(N)=O)c2nc(-c3ccc(F)cc3)cs2)cc1C(F)(F)F [Compound 140, 1-(4-(4-fluorophenyl)thiazol-2-yl)-1-(4-(methyl(pentyl)amino)-3-(trifluoromethyl)phenyl)urea]
read-out: EC50
  EC50: < 1000 nM

## CCCCCCCOc1ccc(N(C(=O)C(=O)OC)c2nc(-c3ccc(Cl)s3)cs2)cc1 [Compound 98, methyl 2-((4-(5-chlorothiophen-2-yl)thiazol-2-yl)(4-(heptyloxy)phenyl)amino)-2-oxoacetate]
read-out: EC50
  EC50: < 1000 nM

## CCCCCOc1ccc(N(C)c2nc(-c3ccc(CN4CCN(C)CC4)nc3)cs2)cc1C(F)(F)F [Compound 10, N-methyl-4-(6-((4-methylpiperazin-1-yl)methyl)pyridin-3-yl)-N-(4-(pentyloxy)-3-(trifluoromethyl)phenyl)thiazol-2-amine]
read-out: EC50
  EC50: < 1000 nM

## CCCCOc1ccc(N(C(N)=O)c2nc(-c3ccc(C)nc3)cs2)cc1C(F)(F)F [Compound 132, 1-(4-butoxy-3-(trifluoromethyl)phenyl)-1-(4-(6-methylpyridin-3-yl)thiazol-2-yl)urea]
read-out: EC50
  EC50: < 1000 nM

## C/C=N/N(c1ccc(OCCCCCCCC)cc1)c1nc(-c2cccnc2)cs1 [Compound 190, (E)-2-(2-ethylidene-1-(4-(octyloxy)phenyl)hydrazinyl)-4-(pyridin-3-yl)thiazolo]
read-out: EC50
  EC50: < 1000 nM

## CCCCCCCCOc1ccc(N(C(=O)COC(C)=O)c2nc(-c3cccnc3)cs2)cc1C(F)(F)F [Compound 158, 2-((4-(octyloxy)-3-(trifluoromethyl)phenyl)(4-(pyridin-3-yl)thiazol-2-yl)amino)-2-oxoethyl acetate]
read-out: EC50
  EC50: < 1000 nM

## Cc1ccc(-c2csc(N(C(N)=O)c3ccc(OCC4CCCCC4)c(F)c3)n2)cn1 [Compound 114, 1-(4-(cyclohexylmethoxy)-3-fluorophenyl)-1-(4-(6-methylpyridin-3-yl)thiazol-2-yl)urea]
read-out: EC50
  EC50: 1000 to 10000 nM
